Assay results taken from US20030149306A1, “Process for the preparation of polymorph of 4-(aryl)-1,2,3,4-tetrahydro-1-naphthale-namine derivative” (priority 2000, published 2003).
“Also recorded” adds a separate entry of the source. Where a name gives a salt, the structure may show the parent alone.

Columns and labels:
[1] = as compared to Form I; cited from earlier work
[2] = compared among Forms I to V; cited from earlier work
[3] = from a pharmaceutical formulation; cited from earlier work
[4] = solid-state stability of Form V (Infrared spectrum KBr and X-ray diffractogram) under storage, grinding and heating; assay type: physicochemical
Method: For example, it was stable for 3 months at 40° C. and 75% relative humidity or when subjected to grinding in a pestle and mortar or when heated upto 140° C. for 3 hours.
No change in Infrared spectrum (KBr) and X-ray diffractogram was observed after 3 months at 40° C. and 75% relative humidity or when subjected to grinding in a pestle and mortar or when heated upto 140° C. for 3 hours.

In the case of `CN[C@H]1CC[C@@H](c2ccc(Cl)c(Cl)c2)c2ccccc21` [Example T1, (1S, 4S) N-methyl-4-(3,4-dichlorophenyl)-1,2,3,4-tetrahydro-1-naphthalenamine], the bioavailability [1] is given as “much-improved bioavailability”.

In the case of `CN[C@H]1CC[C@@H](c2ccc(Cl)c(Cl)c2)c2ccccc21` [Form I, hydrochloride salt of (1S,4S) N-methyl-4-(3,4-dichlorophenyl)-1,2,3,4-tetrahydro-1-naphthalenamine], the “thermodynamic stability among crystalline forms” value [2] is listed as “most thermodynamically stable form; also recorded: most stable crystalline form” and the “dissolution rate with respect to the desired bioavailability” value [3] is listed as “dissolves too slowly”.

With `CN[C@H]1CC[C@@H](c2ccc(Cl)c(Cl)c2)c2ccccc21` [Form V, hydrochloride salt of (1S,4S) N-methyl-4-(3,4-dichlorophenyl)-1,2,3,4-tetrahydro-1-naphthalenamine] the “stability (change in Infrared spectrum (KBr) and X-ray diffractogram)” value ([4]; 3 months at 40° C. and 75% relative humidity) was “stable”, the “stability (change in Infrared spectrum (KBr) and X-ray diffractogram)” value ([4]; 3 months at 40° C. and 75% relative humidity, listed as Example 1) was “No change” and the “stability (change in Infrared spectrum (KBr) and X-ray diffractogram)” value ([4]; heated upto 140° C. for 3 hours) was “stable”. The “stability (change in Infrared spectrum (KBr) and X-ray diffractogram)” value ([4]; heated upto 140° C. for 3 hours, listed as Example 1) was “No change”, the “stability (change in Infrared spectrum (KBr) and X-ray diffractogram)” value ([4]; subjected to grinding in a pestle and mortar) was “stable” and the “stability (change in Infrared spectrum (KBr) and X-ray diffractogram)” value ([4]; subjected to grinding in a pestle and mortar, listed as Example 1) was “No change”.
